{"source": "patent US20140142000A1", "about": "“MICROFLUIDIC ARRAY PLATFORM FOR SIMULTANEOUS CELL CULTURE UNDER OXYGEN TENSIONS” (Academia Sinica, priority 2012, published 2014)", "key": {"[1]": {"system": "A549 cells", "assay": "Cell morphology and attachment of A549 cells cultured with TPZ on the array platform", "format": "cell-based, human", "conditions": "48 hours", "experimental": "In the experiments, 1 M NaOH and pyrogallol solutions with concentrations of 0, 190, and 500 μg ml^−1 at flow rates of […] were used to set the oxygen tensions inside the cell culture wells as normoxia (˜20%), 7.0%, and 1.4%, respectively, and the drug, TPZ, with concentrations of […] were applied. The cells were cultured under different conditions, including: 20% oxygen and 0 mM TPZ; 20% oxygen and 50 mM TPZ; and 1.4% oxygen and 50 mM TPZ, for 48 hours. […] Furthermore, the cell viability was checked using a live/dead stain solution containing calcein AM (1 mM) and ethidium homodimer-1 (2 mM) from LIVE/DEAD Viability/Cytotoxicity Kit (L3224, Invitrogen). The great viability (>95% by analyzing four fluorescence images taken in different cell culture wells using an image analysis software MetaMorph from Molecular Devices, Sunnyvale, Calif.) of the cells cultured under the control conditions for 48 hours confirmed the great cell compatibility of the multi-layer PDMS microfluidic device according to the invention. […] To quantitatively characterize the cell viabilities of A549 cells treated with TPZ under various oxygen tensions, the PrestoBlue cell viability assays were performed in the experiments. The developed microfluidic array platform can be directed placed into a microplate reader commonly used in biological labs for assay readout. […]"}, "[2]": {"system": "A 549 cells", "assay": "Fluorescence-based cell viability in conventional 96-well plates with oxygen tension-controlled incubator, compared with the device", "set-up": "species or system human", "conditions": "96-well plate, 48 hours, normoxia and hypoxia", "procedure": "A comparison of cell viabilities under various drug treatments in normoxia and hypoxia conditions using the cell culture array platform according to the invention and conventional 96-well plates (167008, Nunclon DELTA Surface, Nunc) with an oxygen tension-controlled cell incubator (Heracell 240i, Thermo Scientific). In the well plate experiments, approximate 5000 A 549 cells were seeded into each well. The cells with 80 μl medium were incubated overnight in the cell incubator to ensure the cell attachment onto the wells before the drug treatments, and 20 μl drug solutions with various TPZ concentrations were than added into the wells. The cells were incubated with drug-contained medium for 48 hours. After the testing, the cell viabilities were estimated using the fluorescence-based cell viability assay, and read by the plate reader."}, "[3]": {"assay": "in vitro", "format": "cell-based", "conditions": "human", "experimental": "To examine the performance of the array on a chip form for cell culture, carcinomic human alveolar basal epithelial cells (A549, ATCC, Manassas, Va., USA) were utilized. A549 cells were cultured in F-12K medium (Gibco 21127, Invitrogen Co., Carlsbad, Calif., USA) with 10% v/v fetal bovine serum (FBS) (Gibco 10082, Invitrogen Carlsbad, Calif., USA) and 1% v/v antibiotic-antimycotic (Gibco 15240, Invitrogen, Carlsbad, Calif., USA). The stocks were maintained under 5% CO2 in T25 cell culture flasks (Nunc 156367, Thermo Scientific Inc., Rochester, N.Y., USA), and passaged by dissociation with 0.25% trypsin-EDTA (Gibco 25200, Invitrogen, Carlsbad, Calif., USA). […]\nFor oxygen scavenging, pyrogallol (benzene-1,2,3-triol, C6H6O3) (87-66-1, Alfa Aesar, Ward Hill, Mass., USA) and sodium hydroxide (NaOH) (30620, Sigma-Aldrich, St Louis, Mo., USA) were introduced into the microfluidic channels to control oxygen tensions. The oxygen tensions in the cell culture wells were calibrated by measuring the relative fluorescence lifetime of an oxygen sensitive fluorescence dye, tris(2,2′-bypyridyl) ruthenium […] chloride (50525-27-4, Acros Organics, Geel, Belgium), while flowing chemicals in the underneath channels with various concentrations using the experimental setup as shown in FIG. 2(a). […]"}, "[4]": {"system": "A549 cells", "assay": "PrestoBlue normalized cell viability of A549 cells treated with TPZ under various oxygen tensions on the array platform (48 hours)", "format": "cell-based, human", "procedure": "In the experiments, 1 M NaOH and pyrogallol solutions with concentrations of 0, 190, and 500 μg ml^−1 at flow rates of 20 μml^−1 were used to set the oxygen tensions inside the cell culture wells as normoxia (˜20%), 7.0%, and 1.4%, respectively, and the drug, TPZ, with concentrations of 0, 10, 25, 50, and 100 mM were applied. The cells were cultured under different conditions, including: 20% oxygen and 0 mM TPZ; 20% oxygen and 50 mM TPZ; and 1.4% oxygen and 50 mM TPZ, for 48 hours. […] Furthermore, the cell viability was checked using a live/dead stain solution containing calcein AM (1 mM) and ethidium homodimer-1 (2 mM) from LIVE/DEAD Viability/Cytotoxicity Kit (L3224, Invitrogen). […] To quantitatively characterize the cell viabilities of A549 cells treated with TPZ under various oxygen tensions, the PrestoBlue cell viability assays were performed in the experiments. […] In order to minimize variations between the experiments, the measured fluorescence intensity from each well was normalized to the average intensity of the cell culture wells, in which the cells were cultured under normoixa without TPZ (i.e. 0 mM TPZ). To compare the differences between the normalized cell viabilities for various oxygen tensions, statistical analysis, unpaired, two-tailed Student's t-tests were performed in this study."}}}
{"smiles": "Nc1n[n+]([O-])c2ccccc2[n+]1[O-]", "note": "[TPZ, 3-amino-1,2,4-benzotriazine-1,4-dioxide]", "values": [{"measurement": "cell morphology / attachment", "setting": "[1]; 1.4% oxygen and 50 mM TPZ", "result": "more cells became rounded and detached from the substrate"}, {"measurement": "cell morphology / attachment", "setting": "[1]; 20% oxygen and 50 mM TPZ", "result": "the shapes of the cells became rounded and some cells detached from the substrate"}, {"measurement": "hypoxia-activated cytotoxicity in well plates compared with the device", "setting": "[2]", "result": "more hypoxia-activated cytotoxicity"}, {"measurement": "cytotoxicity at 12 h", "setting": "[3]", "result": "> 20", "unit": "%"}, {"measurement": "normalized cell viability at 1.4% oxygen tension versus 7.0% oxygen tension", "setting": "[4]", "result": "lower statistically than that for the 7.0% oxygen tension condition"}, {"measurement": "normalized cell viability, normoxia higher than low oxygen tensions (7.0% and 1.4%)", "setting": "[4]; TPZ concentrations higher than 25 mM, normalized to normoxia without TPZ", "result": "more than 20%"}]}
